Experimental data taken from patent US11085056B2, “Transfection complexes and methods of using the same” (MOLECULAR TRANSFER, INC., priority 2015, dated 2021).

Tests used:
NL-1 iPS Cells = assay: Transfection of NL-1 iPS cells with DOTMA/DOPE/peptide and eGFP plasmid, fluorescent plate reader; assay type: cell-based; settings: DOTMA/DOPE 1:1 plus peptide with RRRRRRRRRRRR (SEQ ID NO: 109) at n terminus; EF1Alpha eGFP plasmid; 42 hours
Protocol: (§1) Cells were plated to so that on the day of transfection the cells were 60-70% confluent in 96 well tissue culture plates. A DOMTA/DOPE Lipid solution (1:1 molar ratio) at 2 mg/mL in water were mixed with an equal volume of surface ligand peptides that had the nucleic acid binding moiety RRRRRRRRRRRR (SEQ ID NO: 109) covalently linked to the n terminus of each peptide during peptide synthesis. Peptides were at 2 mg/mL in water. The DOTMA/DOPE and the surface ligand peptide solution the transfection reagent was diluted 1 to 1 (v/v) in water. DOMTA/DOPE/PEPTIDE solutions were added to 0.1 mL of a plasmid DNA solution (EF1Alpha eGFP plasmid) at 5 μg/mL in OptiMEM. Lipofectamine 2000 was obtained from Life Technologies.
(§2) All solutions were at room temperature. A volume of 0.2 mL of a 5 μg/mL solution of DNA was aliquoted into each well of a non-tissue cultured treated plate. 4.0 μL of transfection reagents were added to DNA solutions respectively. The transfection reagent and DNA solution was mixed by pipetting up and down twice. Transfection complexes were formed for 10 minutes. After 10 minutes, 0.01 or 0.02 mL of the transfection complex was added to cells. HuVEC, HeLa, human adult keratinocytes, human primary adult fibroblast, and rat cortical neurons all respectively received 0.01 mL of the tramsfectopm complex. Human skeletal muscle cells, mouse C2C12 cells, Jurkat, and THP-1 cells received 0.02 mL of the transfection complex. Cells were incubated for 42 hours at 37° C. at 5% CO2. Plates were read on a fluorescent plate reader. Cells were also examined visually under a microscope to assess the extent of transfection (in terms of the percent of cells transfected) with a fluorescent microscope. Other modes of analysis, for example quantification with B-galactosidase or luciferase reports plasmids can also be used. […] Surface ligand that caused increase expression of GFP over the lipid DOTMA with no surface ligand were considered to enhance transfection or had higher % cells transfected were considered to enhance transfection. Peptides that gave greater than 2 fold enhancement are noted in bold and could be further optimized by adding different transfection enhancers or could be used with different cationic lipids or polymers.

HeLa Cells = assay: Transfection of HeLa cells with DOTMA/DOPE/peptide and eGFP plasmid, fluorescent plate reader; assay type: cell-based; settings: DOTMA/DOPE 1:1 plus peptide with RRRRRRRRRRRR (SEQ ID NO: 109) at n terminus; EF1Alpha eGFP plasmid; 0.01 mL complex; 42 hours
Protocol: as §1, §2

some examined cell types = assay: Transfection expression and % cells transfected over the no peptide control; assay type: cell-based; settings: on some examined cell types
Protocol: as §1, §2

Jurkat Cells = assay: Transfection of Jurkat cells with DOTMA/DOPE/peptide and eGFP plasmid, fluorescent plate reader; assay type: cell-based; settings: DOTMA/DOPE 1:1 plus peptide with RRRRRRRRRRRR (SEQ ID NO: 109) at n terminus; EF1Alpha eGFP plasmid; 0.02 mL complex; 42 hours
Protocol: as §1, §2

Human Fibroblast Cells = assay: Transfection of human fibroblast cells with DOTMA/DOPE/peptide and eGFP plasmid, fluorescent plate reader; assay type: cell-based; settings: DOTMA/DOPE 1:1 plus peptide with RRRRRRRRRRRR (SEQ ID NO: 109) at n terminus; EF1Alpha eGFP plasmid; 0.01 mL complex; 42 hours
Protocol: as §1, §2

C2C12 Cells = assay: Transfection of C2C12 cells with DOTMA/DOPE/peptide and eGFP plasmid, fluorescent plate reader; assay type: cell-based, mouse; settings: DOTMA/DOPE 1:1 plus peptide with RRRRRRRRRRRR (SEQ ID NO: 109) at n terminus; EF1Alpha eGFP plasmid; 0.02 mL complex; 42 hours
Protocol: as §1, §2

HuVec Cells = assay: Transfection of HuVec cells with DOTMA/DOPE/peptide and eGFP plasmid, fluorescent plate reader; assay type: cell-based; settings: DOTMA/DOPE 1:1 plus peptide with RRRRRRRRRRRR (SEQ ID NO: 109) at n terminus; EF1Alpha eGFP plasmid; 0.01 mL complex; 42 hours
Protocol: as §1, §2

Substance	RF (Relative Fluorescence) of Transfection of NL-1 iPS Cells (NL-1 iPS Cells)	RF (Relative Fluorescence) of Transfection of HeLa Cells (HeLa Cells)	transfection expression and the % cells transfected over the no peptide control (some examined cell types)	RF (Relative Fluorescence) of Transfection of Jurkat Cells (Jurkat Cells)	RF (Relative Fluorescence) of Transfection of Human Fibroblast Cells (Human Fibroblast Cells)	RF (Relative Fluorescence) of Transfection of C2C12 Cells (C2C12 Cells)	RF (Relative Fluorescence) of Transfection of HuVec Cells (HuVec Cells)
107 (RRRRRRRR; Peptidic transfection agent) [compound 107]	1441	75					
205 (AASIKVAVSADR; Peptidic transfection agent) [compound 205]	13140	26368	increased	2298	8550	2102	8309
216 (YRVRVTPKEKTGPMKE; Peptidic transfection agent) [compound 216]	19626	6181	increased	3570	3117	1001	14693
220 (ATETTITIS; Peptidic transfection agent) [compound 220]	15892	9398	increased	6428	4516	1470	8737
224 (KPDVRSYTITG; Peptidic transfection agent) [compound 224]	25209	5559		13170	5995	1469	15945
226 (ANGQTPIQRYIK; Peptidic transfection agent) [compound 226]	24920	7340	increased	12976	3431	1664	20864
229 (PPFLMLLKGSTR; Peptidic transfection agent) [compound 229]	13491	8816	increased	8079	6811	1164	5452
234 (YEKPGSPPREVVPRPRPGV; Peptidic transfection agent) [compound 234]	14410	3867		5441	4145	681	13956
235 (KARSFNVNQLLQD; Peptidic transfection agent) [compound 235]							26940
